Where two headings read alike, the source gives them in different places.
Assays:
BxPC-3 cells = experiment: Lactic dehydrogenase release from BxPC-3 cells; format: cell-based, human; settings: n=4, read-out: IC50, lactate dehydrogenase release from BxPC-3 cells
Procedure: (§1) Experiment 4 was designed to confirm apoptotic cell death of U251 cells induced by ATA, AQA, AHA, and ATAC by measuring release of lactic dehydrogenase into the cell medium. For serum lactate dehydrogenase determination, reaction supernatants ([…]) were pipetted into the wells of 96-well plates, followed by the addition of […] lactate solution (36 mg/mL in PBS) and […] INT (iodonitrotetrazolium chloride, 2-(4-iodophenyl)-3-(4-nitrophenyl)-5-phenyl-2H-tetrazolium chloride) solution (2 mg/mL in PBS). The enzymatic reaction was started by addition of […] of NAD^+/diaphorase solution (3 mg/mL NAD^+; 2.3 mg solid/mL diaphorase). After 1 h, optical densities were measured with a microplate reader using a 490 nm filter. The amount of LDH released was expressed as a percentage of the value obtained in comparative cells where cells were 100% lysed by 1% Triton X-100.
Experiment 8 was designed to confirm apoptotic cell death of BxPC-3 cells induced by ATA, AQA, AHA, and ATAC by the release of lactic dehydrogenase into the cell medium.

U251 cells = experiment: Lactic dehydrogenase release from U251 cells; format: cell-based, human; settings: n=4, read-out: IC50, lactate dehydrogenase release from U251 cells
Procedure: as §1

[1] = system: K562 human chronic myelogenous leukemia cell line; experiment: K562 cell growth in zymosan-activated human serum (MTT cell viability); format: cell-based
Procedure: (§2) Experiment 1 was designed to determine the effect of ATA, AHA, AQA and ATAC on U251 cell growth in the presence of complement activated human serum. In Experiment 1(a), U251 cells were treated with various concentrations of human serum (1, 5, 7.5, 10, 12.5, 15%) in DMEM and incubated with 1 μg/mL zymosan at 37° C. for 72 h. Control U251 cells (CON) were incubated in fresh DMEM only. As a further control U251 cells were treated with 10% human serum heated at 56° C. for 30 min to heat inactivate complement (HIS) before incubation with 1 μg/ml zymosan. In Experiment 1(b), U251 cells were treated with various concentrations of ATAC, ATA, AQA and AHA (0.1, 1, 5, 10, 30, 50 μM) in DMEM with 15% human serum and incubated with 1 μg/mL zymosan at 37 ° C. for 72 h. In both Experiments 1(a) and 1(b), following incubation, cell viability was evaluated by MTT (3-[4,5-dimethylthiazol-2-yl]-2,5 diphenyl tetrazolium bromide) assays by adding MTT to the cell cultures to reach a final concentration of 1 mg/mL. Following a 1 h incubation at 37° C., the dark crystals formed were dissolved by adding a SDS/DMF extraction buffer (300 μL, 20% sodium dodecyl sulfate, 50% N,N-dimethylformamide, pH 4.7). Plates were subsequently incubated overnight at 37° C. and optical densities at 570 nm were measured by transferring 100 μL aliquots to 96-well plates and using a plate reader with a corresponding filter.
Experiment 17 was designed to determine the effect of ATA, AQA, AHA and ATAC on K562 human chronic myelogenous leukemia cell growth. The protocol was identical to that used in Experiment 15(b) except that K562 human chronic myelogenous were utilized and the growth medium was Iscove's.

[2] = system: human bone osteosarcoma MNNG cells; experiment: MNNG cell growth in zymosan-activated human serum (MTT cell viability); format: cell-based; settings: 15% human serum, n=4, read-out: IC50, inhibition of MNNG cell growth induced by zymosan-activated human serum complement
Procedure: as §2
Experiment 21 was designed to determine the effect of ATA, AQA, AHA and ATAC on growth of the human bone osteosarcoma MNNG cell line. The protocol was identical to that used in Experiment 19 (b) except that human bone osteosarcoma MNNG cells were utilized.

[3] = system: human carcinoma SW 480 cells; experiment: Lactic dehydrogenase release from SW 480 cells; format: cell-based; settings: n=4, read-out: IC50, lactate dehydrogenase release from SW 480 cells
Procedure: as §1
Experiment 23 was designed to determine the effect of ATA, AQA, 15 AHA and ATAC on growth of the human colorectal cancer cell line SW 480. The protocol was identical to that used in Experiment 15(b) except that human colorectal cancer SW480 cells were utilized. Experiment 24 was designed to determine if apoptotic death of human carcinoma SW 480 cells was induced by ATA, AQA, AHA, and ATAC as determined by the release of lactic dehydrogenase into the cell medium. The protocol was identical to that used in Experiment 15(d) except that human carcinoma SW480 cells were used and the growth medium was DMEM.

[4] = system: DOHH2 human B-cell carcinoma cells; experiment: Lactic dehydrogenase release from DOHH2 cells; format: cell-based
Procedure: as §1
(§3) Experiment 16 was designed to determine if apoptotic cell death of DOHH2 human B-cell carcinoma cells was induced by ATA, AQA, AHA, and ATAC as determined by the release of lactic dehydrogenase into the cell medium. The protocol was identical to that used in Experiment 9(d) except that DOHH2 human B-cell carcinoma cells were used.

[5] = system: human bone osteosarcoma MNNG cells; experiment: Lactic dehydrogenase release from MNNG cells; format: cell-based; settings: n=4, read-out: IC50, lactate dehydrogenase release from MNNG cells
Procedure: as §1
as §3, with “22” for “16”, “apoptotic” for “apoptotic cell”, “of” for “of DOHH2”, “bone osteosarcoma MNNG” for “B-cell carcinoma”, “19(d)” for “9(d)”, “that” for “that DOHH2”

[6] = system: U251 malignant glioblastoma human cell line; experiment: U251 cell growth in zymosan-activated human serum (MTT cell viability); format: cell-based; settings: 15% human serum, 1 μg/mL zymosan, 72 h, n=4, read-out: IC50, inhibition of U251 cell growth induced by zymosan-activated human serum complement
Procedure: To obtain normal serum, blood samples from healthy individuals were treated at 37° C. for 3 h to promote clotting. Samples were then centrifuged at 3,000 g for 10 min and the clear serum was harvested.
The ATAC used comprised approximately 78% ATA, 15% AQA, and 7% AHA. In addition, ATA, AQA and AHA that had been separated by size exclusion chromatography were also tested individually, their purity having been verified by mass spectrometry.
U251 cells were grown in DMEM medium containing 10% fetal bovine serum (FBS), 100 IU/mL penicillin, and 100 μg/mL streptomycin (Invitrogen™, Carlsbad, Ca.) under humidified 5% CO2 and 95% air until confluence was reached. This usually required 3 days of incubation. Aliquots of these cells (˜2×10^5 cells) were added to 24-well plates.
as §2, with “Following a 1 h incubation at 37° C., the dark crystals formed were dissolved by adding a SDS/DMF extraction buffer (300 μL, 20% sodium dodecyl sulfate, 50% N,N-dimethylformamide, pH 4.7).” left out

[7] = K562 cells, Iscove's medium, 15% human serum, zymosan, MTT, n=4, read-out: IC50, inhibition of K562 cell growth induced by zymosan-activated human serum complement
[8] = n=4, read-out: IC50, lactate dehydrogenase release from DOHH2 cells

Row | IC50 [2] [µM] | IC50 (BxPC-3 cells) [µM] | IC50 (U251 cells; LDH as % of Triton X-100 lysis) [µM] | IC50 [1, 7] [µM] | IC50 ([3]; DMEM) [µM] | IC50 [4, 8] [µM] | IC50 [5] [µM] | IC50 ([6]; U251 cells) [µM] | Compound | IC50 (BxPC-3 cells; Homo sapiens) [µM] | IC50 (U251 cells; Homo sapiens, U-251, LDH as % of Triton X-100 lysis) [µM] | IC50 ([1]; Homo sapiens, K562, read-out: IC50, inhibition of K562 cell growth induced by zymosan-activated human serum complement) [µM] | IC50 ([3]; Homo sapiens, SW480, DMEM) [µM] | IC50 ([4]; Homo sapiens, DOHH-2, n=4, read-out: IC50, lactate dehydrogenase release from DOHH2 cells) [µM] | IC50 ([5]; Homo sapiens) [µM] | IC50 ([6]; U-251, U251 cells) [µM]
1 | 7.5 | 8.1 | 7.7 | 4.6 | 4.9 | 5.1 | 6.6 | 3.8 | aurin hexacarboxylic acid [AHA] | – | – | – | – | – | – | –
2 | 7.4 | 8 | 7.4 | 4.7 | 4.6 | 5 | 6.4 | 3.7 | aurin quadracarboxylic acid [AQA] | – | – | – | – | – | – | –

Row | Compound | IC50 [2] [µM] | IC50 (BxPC-3 cells) [µM] | IC50 (U251 cells; LDH as % of Triton X-100 lysis) [µM] | IC50 [1, 7] [µM] | IC50 ([3]; DMEM) [µM] | IC50 [4, 8] [µM] | IC50 [5] [µM] | IC50 ([6]; U251 cells) [µM] | IC50 (BxPC-3 cells; Homo sapiens) [µM] | IC50 (U251 cells; Homo sapiens, U-251, LDH as % of Triton X-100 lysis) [µM] | IC50 ([1]; Homo sapiens, K562, read-out: IC50, inhibition of K562 cell growth induced by zymosan-activated human serum complement) [µM] | IC50 ([3]; Homo sapiens, SW480, DMEM) [µM] | IC50 ([4]; Homo sapiens, DOHH-2, n=4, read-out: IC50, lactate dehydrogenase release from DOHH2 cells) [µM] | IC50 ([5]; Homo sapiens) [µM] | IC50 ([6]; U-251, U251 cells) [µM]
3 | O=C(O)C1=CC(=C(c2ccc(O)c(C(=O)O)c2)c2ccc(O)c(C(=O)O)c2)C=CC1=O [ATA, aurin tricarboxylic acid] | 7.2 | – | – | – | – | – | – | – | 7.9 | 7.6 | 4.5 | 4.7 | 4.9 | 6.5 | 3.5

— patent publication US10653651B2, “Kit for treating cancer with low molecular weight components of aurin tricarboxylic acid complex” (Aurin Biotech Inc., priority 2014, dated 2020)
